Measured values as given in paper PMC6149679 (2017).

Key:
[1] = system: poly AH+-poly AH+ (poly A at pH 5) (RNA, polymer, adenine protonated at pH 5) A; experiment: fluorescence titration (λexc 355 nm); settings: Na+ (sodium cacodylate, I = 0.05 M), emission of 2 did not change
[2] = system: poly A–poly U (RNA, polymer) A/U; experiment: thermal denaturation, absorbance at 260 nm; settings: Na+ (sodium cacodylate, I = 0.05 M); pH 7.0; no stabilisation (error ± 0.5 °C); same at pH 5
[3] = system: poly A–poly U (RNA, polymer) A/U; experiment: fluorescence titration (λexc 355 nm), Scatchard; settings: Na+ (sodium cacodylate, I = 0.05 M); pH 5.0; n fixed at 0.2; polynucleotide as phosphates; per base
poly A (RNA, polymer) A = experiment: fluorescence titration (λexc 355 nm), Scatchard; settings: Na+ (sodium cacodylate, I = 0.05 M); pH 7.0; n fixed at 0.2; polynucleotide as phosphates; per base
[4] = system: poly A–poly U (RNA, polymer) A/U; experiment: fluorescence titration (λexc 355 nm); settings: Na+ (sodium cacodylate, I = 0.05 M); pH 7.0; no emission change

COC(=O)C(Cc1cc2cn(CCN3C(=O)c4ccccc4C3=O)c(=O)nc2[nH]1)NC(=O)CNC(=O)[C@@H](CCCCN)NC(=O)c1ccc(C(=O)NC(=N)N)[nH]1 (stereo partly shown)
binding [1]: no
binding [2]: no
log Ks [3]: 3.5
log Ks (poly A (RNA, polymer) A): 4.1
binding [4]: no

COC(=O)C(Cc1cc2cn(CCN3C(=O)c4ccccc4C3=O)c(=O)nc2[nH]1)NC(=O)CNC(=O)[C@H](N)CCCCNC(=O)c1ccc(C(=O)NC(=N)N)[nH]1 (stereo partly shown)
binding [2]: no
binding [4]: no
